Measured values: patent US12398097B2, “WDR5-MYC inhibitors” (Vanderbilt University, priority 2019, dated 2025)

target: WDR5 (Homo sapiens, UniProt P61964); assay: Competition-based fluorescence polarization anisotropy assay; conditions: binding to WDR5; displacement of FITC-labeled small molecule probe (analogous to Example J2 or HCH-25) or peptide probe FITC-AHx-SEEEIDVVSV; pH 6.0; Ki converted from IC50
Method in brief: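 Competition fluorescence polarization anisotropy binding to WDR5 using a FITC-labeled peptide probe or a fluorescently labeled small-molecule probe. Buffer: 200 mM phosphate, 300 mM NaCl, 0.5 mM TCEP, 0.1% Chaps, pH 6.0. Displacement data were converted to Ki.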

Compound | Ki [nM]
O=S(=O)(Nc1cc(C2CC2)ccc1O)c1cc(Br)ccc1O [JDM-10-108A, 5-Bromo-N-(5-cyclopropyl-2-hydroxyphenyl)-2-hydroxybenzenesulfonamide] | 820
O=[N+]([O-])c1cc(Cl)cc(NS(=O)(=O)c2cc(Br)cc3c2OCC3)c1O [NE7, 5-Bromo-N-(5-chloro-2-hydroxy-3-nitrophenyl)-2,3-dihydrobenzofuran-7-sulfonamide] | 1110
CNC(=O)c1cc(C2(C#N)CCC2)cc(NS(=O)(=O)c2cc(Br)cc(Cl)c2OC)c1O [SN-3, 3-((5-bromo-3-chloro-2-methoxyphenyl)sulfonamido)-5-(1-cyanocyclobutyl)-2-hydroxy-N-methylbenzamide] | 13700
COc1c(Cl)cc(Br)cc1S(=O)(=O)Nc1cc(C2(C#N)CCC2)cc(C(=O)O)c1O [SN-4, 3-((5-bromo-3-chloro-2-methoxyphenyl)sulfonamido)-5-(1-cyanocyclobutyl)-2-hydroxybenzoic acid] | 870
CNC(=O)c1cc(C2(C#N)CCC2)cc(NS(=O)(=O)c2cc(Br)c(F)cc2OC)c1O [SN-5, 3-((5-bromo-4-fluoro-2-methoxyphenyl)sulfonamido)-5-(1-cyanocyclobutyl)-2-hydroxy-N-methylbenzamide] | 2620
N#CC1(c2cc(NS(=O)(=O)c3cc(Br)cc4cccnc34)c(O)c(C(=O)O)c2)CCC1 [SN-6, 3-((6-bromoquinoline)-8-sulfonamido)-5-(1-cyanocyclobutyl)-2-hydroxybenzoic acid] | 40
CNC(=O)c1cc(C2(C#N)CCC2)cc(NS(=O)(=O)c2cc(Br)cc3c2OCC3)c1O [SN-9, 3-((5-bromo-2,3-dihydrobenzofuran)-7-sulfonamido)-5-(1-cyanocyclobutyl)-2-hydroxy-N-methylbenzamide] | 990
N#CC1(c2cc(NS(=O)(=O)c3cc(Br)cc4c3OCC4)c(O)c(C(=O)O)c2)CCC1 [SN-10, 3-((5-bromo-2,3-dihydrobenzofuran)-7-sulfonamido)-5-(1-cyanocyclobutyl)-2-hydroxybenzoic acid] | 50
Methyl 4-chloro-2-(N-(5-chloro-2-hydroxy-3-nitrophenyl)sulfamoyl)benzoate [NE4] | 1810
Methyl 4-chloro-2-(N-(5-chloro-2-hydroxy-3-nitrophenyl)sulfamoyl)benzoate [NE5] | 460

Next, values leading:

Ki [nM] | Compound
850 | N#CC1(c2ccc(O)c(NS(=O)(=O)c3cc(Br)ccc3O)c2)CC1 [JDM-10-107, 5-Bromo-N-(5-(1-cyanocyclopropyl)-2-hydroxyphenyl)-2-hydroxybenzenesulfonamide]
1780 | COc1ccc(Br)cc1S(=O)(=O)Nc1cc(Cl)cc([N+](=O)[O-])c1O [NE1, 5-Bromo-N-(5-chloro-2-hydroxy-3-nitrophenyl)-2-methoxybenzenesulfonamide]
5050 | COc1ccc(Cl)cc1S(=O)(=O)Nc1cc(Cl)cc([N+](=O)[O-])c1O [NE2, 5-Chloro-N-(5-chloro-2-hydroxy-3-nitrophenyl)-2-methoxybenzenesulfonamide]
12400 | O=[N+]([O-])c1cc(Cl)cc(NS(=O)(=O)c2cc(Br)ccc2O)c1O [NE6, 5-Bromo-N-(5-chloro-2-hydroxy-3-nitrophenyl)-2-hydroxybenzenesulfonamide]
7240 | COc1cc(OC)c(S(=O)(=O)Nc2cc(Cl)cc([N+](=O)[O-])c2O)cc1Br [NE8, 5-Bromo-N-(5-chloro-2-hydroxy-3-nitrophenyl)-2,4-dimethoxybenzenesulfonamide]
390 | O=[N+]([O-])c1cc(Cl)cc(NS(=O)(=O)c2cc(Br)cc(OC(F)(F)F)c2O)c1O [NE9, 5-Bromo-N-(5-chloro-2-hydroxy-3-nitrophenyl)-2-hydroxy-3-(trifluoromethoxy)benzenesulfonamide]
11700 | CCCc1cc(Br)cc(S(=O)(=O)Nc2cc(Cl)cc([N+](=O)[O-])c2O)c1O [NE10, 5-Bromo-N-(5-chloro-2-hydroxy-3-nitrophenyl)-2-hydroxy-3-propylbenzenesulfonamide]
610 | O=C(O)c1cc(Br)cc(S(=O)(=O)Nc2cc(Cl)cc([N+](=O)[O-])c2O)c1O [NE12]
1420 | O=C1CCCN1c1cc(Cl)cc(NS(=O)(=O)c2cc(Br)cc(Cl)c2O)c1 [NE13, 5-Bromo-3-chloro-N-(3-chloro-5-(2-oxopyrrolidin-1-yl)phenyl)-2-hydroxybenzenesulfonamide]
370 | O=C1NCCN1c1cc(Cl)cc(NS(=O)(=O)c2cc(Br)cc(Cl)c2O)c1 [NE14, 5-Bromo-3-chloro-N-(3-chloro-5-(2-oxoimidazolidin-1-yl)phenyl)-2-hydroxybenzenesulfonamide]
